Three molecules from ChEMBL document CHEMBL1157099, “Proline-containing cyclopeptides from the marine sponge Phakellia fusca” (J Nat Prod, 2010) can be followed below.

pIC50: −log10 of the molar value. Calls of active or inactive are those of the source. No cut-off for these calls is given here. Residues, ends and D or L forms follow the SMILES beside them.

Assay [1] concerns P388. As to the kind of experiment: Cytotoxicity against mouse P388 cells after 48 hrs by MTT assay. In kind it is functional, cell-based. As to conditions: for pIC50: P388, 48 h.
Assay [2] relates to Bel-7402. As to the kind of experiment: Cytotoxicity against human Bel7402 cells after 48 hrs by MTT assay. Type of assay: functional, cell-based. A general note: Tetrazolium dyes change colour on reduction, which living cells bring about.

As to `CC[C@H](C)[C@@H]1NC(=O)[C@H](CC(C)C)NC(=O)[C@@H]2CCCN2C(=O)[C@H](C(C)C)NC(=O)[C@H](Cc2c[nH]c3ccccc23)NC(=O)[C@@H]2CCCN2C(=O)[C@H]([C@@H](C)CC)NC(=O)[C@@H]2CCCN2C1=O` (cyclo(IPIPWVPL)), the result in assay [1] and in assay [2] was inactive.
What is called pIC50 is the negative decadic logarithm of the IC50, by convention in mol/L. A higher pIC50 goes with a small IC50. Regarding `CC[C@H](C)[C@@H]1NC(=O)[C@H](Cc2c[nH]c3ccccc23)NC(=O)[C@@H]2CCCN2C(=O)[C@H](CC(C)C)NC(=O)[C@@H]2CCCN2C(=O)[C@H]([C@@H](C)O)NC(=O)[C@H](CC(C)C)NC(=O)[C@@H]2CCCN2C1=O` [PHAKELLISTATIN 15] (cyclo(IPLTPLPW)), the pIC50 in assay [1] was 5.07.
As to `CC(C)[C@@H]1NC(=O)[C@H](C)NC(=O)[C@H](CCCNC(=N)N)NC(=O)[C@H](CO)NC(=O)[C@H](CC(=O)O)NC(=O)[C@H](Cc2ccccc2)NC(=O)[C@@H]2CCCN2C(=O)[C@H](Cc2ccc(O)cc2)NC(=O)[C@H]([C@@H](C)O)NC1=O` [PHAKELLISTATIN 16] (cyclo(AVTYPFDSR)), the pIC50 in assay [1] was 5.27; in assay [2] (Bel-7402, 48 h), 4.84.
